# In ChEMBL document CHEMBL1201862, “PubChem BioAssay data set” (2004):
#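 96-well plates; 48 h exposure; 5 concentrations. Endpoints by linear interpolation between flanking doses. Not reached: highest tested concentration assigned. Here, GI50 denotes the concentration required for 50% inhibition of growth.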 Active and inactive are the calls of the source. Rule as the data show it: active = GI50 up to about 1.1 µM and inactive = higher.
# How the values were obtained:
# Experiment in all cases: NCI-60 cell line screen, 48 h
# HOP-62 = test system: HOP-62
# NCI-H226 = test system: NCI-H226
# BT-549 = test system: BT-549
# SNB-75 = test system: SNB-75
# NCI-H522 = test system: NCI-H522
# MDA-N = test system: MDA-N
# UO-31 = test system: UO-31
# SF-539 = test system: SF-539
# MCF7 = test system: MCF7
# Malme-3M = test system: Malme-3M
# Hs-578T = test system: Hs-578T
# A549 = test system: A549
# MDA-MB-435 = test system: MDA-MB-435
# HCT-15 = test system: HCT-15
# HL-60 = test system: HL-60
# SK-MEL-28 = test system: SK-MEL-28
# SN12C = test system: SN12C
# SF-268 = test system: SF-268
# SK-MEL-2 = test system: SK-MEL-2
# EKVX = test system: EKVX
# TK-10 = test system: TK-10
# 786-0 = test system: 786-0
# COLO 205 = test system: COLO 205
# OVCAR-8 = test system: OVCAR-8
# SK-OV-3 = test system: SK-OV-3
# M14 = test system: M14
# ACHN = test system: ACHN
# RPMI-8226 = test system: RPMI-8226
# SNB-19 = test system: SNB-19
# HOP-92 = test system: HOP-92
# NCI/ADR-RES = test system: NCI/ADR-RES
# CCRF-CEM = test system: CCRF-CEM
# UACC-62 = test system: UACC-62
# LOX IMVI = test system: LOX IMVI
# T47D = test system: T47D
# K562 = test system: K562
# U-251 = test system: U-251
# PC-3 = test system: PC-3
# HCT-116 = test system: HCT-116
# MOLT-4 = test system: MOLT-4
# SR = test system: SR
# SK-MEL-5 = test system: SK-MEL-5
# A498 = test system: A498
# NCI-H23 = test system: NCI-H23
# SW-620 = test system: SW-620
# DU-145 = test system: DU-145
# HCC 2998 = test system: HCC 2998
# OVCAR-5 = test system: OVCAR-5
# MDA-MB-231 = test system: MDA-MB-231
# NCI-H460 = test system: NCI-H460
structure (smiles),measurement,setting,value
CC(C(=O)O)c1ccc(-c2ccccc2)c(F)c1 (stereo unspecified) [TARENFLURBIL],GI50,HOP-62,> 100 µM (inactive)
same,GI50,NCI-H226,> 100 µM (inactive)
same,GI50,BT-549,> 100 µM (inactive)
same,GI50,SNB-75,> 100 µM (inactive)
same,GI50,NCI-H522,> 100 µM (inactive)
same,GI50,MDA-N,> 100 µM (inactive)
same,GI50,UO-31,> 100 µM (inactive)
same,GI50,SF-539,> 100 µM (inactive)
same,GI50,MCF7,> 100 µM (inactive)
same,GI50,Malme-3M,> 100 µM (inactive)
same,GI50,Hs-578T,> 100 µM (inactive)
same,GI50,A549,> 100 µM (inactive)
same,GI50,MDA-MB-435,> 100 µM (inactive)
same,GI50,HCT-15,> 100 µM
same,GI50,HL-60,> 100 µM (inactive)
same,GI50,SK-MEL-28,> 100 µM (inactive)
same,GI50,SN12C,> 100 µM (inactive)
same,GI50,SF-268,> 100 µM (inactive)
same,GI50,SK-MEL-2,> 100 µM (inactive)
same,GI50,EKVX,> 100 µM (inactive)
Cc1ccc2nc(-c3ccc(-c4nc5ccc(C)cc5o4)c(O)c3)oc2c1,GI50,TK-10,> 100 µM (inactive)
same,GI50,HOP-62,> 100 µM (inactive)
same,GI50,786-0,> 100 µM (inactive)
same,GI50,COLO 205,> 100 µM (inactive)
same,GI50,OVCAR-8,> 100 µM (inactive)
same,GI50,NCI-H226,> 100 µM (inactive)
same,GI50,SK-OV-3,> 100 µM (inactive)
same,GI50,SNB-75,> 100 µM (inactive)
same,GI50,M14,> 100 µM (inactive)
same,GI50,ACHN,> 100 µM (inactive)
same,GI50,MDA-N,> 100 µM (inactive)
same,GI50,RPMI-8226,> 100 µM (inactive)
same,GI50,SNB-19,> 100 µM (inactive)
same,GI50,UO-31,> 100 µM (inactive)
same,GI50,HOP-92,> 100 µM (inactive)
same,GI50,NCI/ADR-RES,> 100 µM (inactive)
same,GI50,SF-539,> 100 µM (inactive)
same,GI50,CCRF-CEM,> 100 µM (inactive)
same,GI50,MCF7,> 100 µM (inactive)
same,GI50,UACC-62,> 100 µM (inactive)
same,GI50,LOX IMVI,> 100 µM (inactive)
same,GI50,Hs-578T,> 100 µM (inactive)
same,GI50,T47D,> 100 µM (inactive)
same,GI50,A549,> 100 µM (inactive)
same,GI50,K562,> 100 µM (inactive)
same,GI50,U-251,> 100 µM (inactive)
same,GI50,PC-3,> 100 µM (inactive)
same,GI50,MDA-MB-435,> 100 µM (inactive)
same,GI50,HCT-15,> 100 µM
same,GI50,HL-60,> 100 µM (inactive)
same,GI50,SK-MEL-28,> 100 µM (inactive)
same,GI50,SN12C,> 100 µM (inactive)
same,GI50,HCT-116,> 100 µM (inactive)
same,GI50,MOLT-4,> 100 µM (inactive)
same,GI50,SF-268,> 100 µM (inactive)
same,GI50,SK-MEL-2,> 100 µM (inactive)
same,GI50,SR,> 100 µM (inactive)
same,GI50,SK-MEL-5,> 100 µM (inactive)
same,GI50,A498,> 100 µM (inactive)
same,GI50,NCI-H23,> 100 µM (inactive)
same,GI50,SW-620,> 100 µM (inactive)
same,GI50,DU-145,> 100 µM (inactive)
same,GI50,HCC 2998,> 100 µM (inactive)
same,GI50,OVCAR-5,> 100 µM (inactive)
same,GI50,MDA-MB-231,> 100 µM (inactive)
same,GI50,NCI-H460,> 100 µM (inactive)
